Data taken from US10961238B2, “Modulators of hedgehog (Hh) signaling pathway” (E-THERAPEUTICS PLC, priority 2016, dated 2021).
Read-outs that look alike come from different tables or passages of the source.

Assays:
C3H10T1/2 cells = assay: C3H assay: differentiation of C3H10T1/2 cells by mSHH, measurement of alkaline phosphatase; assay type: cell-based, mouse
[1] = tested on: SMO L416F mutant cell line; assay: C3H10T1/2 cell differentiation assay in SMO L416F mutant cell line versus wild type; assay type: cell-based, mouse; settings: for Fold reduction in potency in SMO L416F mutant cell line: SMO L416F mutant cell line compared to the wild type, C3H10T1/2 cell differentiation assay
Description: FIG. 1 is a graph of the percent inhibition of C3H10T1/2 cell differentiation of vismodegib compared to compound of the invention (compound number 174), in wild type versus SMO L416F mutant cell line.
Loss of Potency in C3H10T1/2 Cell Differentiation Assay Associated with Presence of SMO L416F Mutation.
Table 3 below details the number of fold reduction in potency of a range of compounds of the invention when applied to the SMO L416F mutant cell line compared to the wild type. SMO mutation has been described in the literature (Pricl, Sabrina, et al.) as a key mutation causative of vismodegib resistance in the clinic by interfering with drug binding.

SMO = biological target: T1, SMO (Homo sapiens, UniProt Q99835); assay: Smoothened (SMO) binding fluorescence polarisation assay (BODIPY-cyclopamine competition); settings: SMO binding FP assay versus C3H10T1/2 cellular assay
T1 construct: expressed in transfected cells; host or cells: HEK293
Method: Standard Protocol for Smoothened (SMO) Binding Fluorescence Polarisation Assay.
The assay measures the ability of the test compounds to compete with a fluorescently-labelled version of the known ligand, cyclopamine, for binding to SMO. The fluorescent tag used is BODIPY (boron dipyrromethene).
An aliquot of a membrane preparation from a SMO-over-expressing HEK293 cell line is diluted to protein concentration of 0.117 mg/ml in assay buffer (25 mM HEPES, 2 mM EDTA, 0.05% γ-globulin, 0.01% pluronic acid pH7.4, plus protease Inhibitor cocktail). 8.5 μl of the membrane suspension is added to each well of a black, low volume 384 well microtitre plate.
Test compounds are added in a seven point dilution range to the wells containing the membrane preparation. The final DMSO solvent concentration in the wells is maintained at 0.3%. 6.5 μl of a 6.9 nM BODIPY-cyclopamine solution is added to each of the wells (final assay concentration 3 nM).
The plate is sealed and stored in the dark at room temperature for 24 hours prior to measurement of the fluorescence polarisation signal on a Perkin Elmer Envision multi-label reader.
Table 4 below details the ratio of SMO binding compared to the potency in the C3H10T1/2 cellular assay. The small ratio between SMO binding and potency for vismodegib is considered to be reflective of the fact vismodegib acts mainly through inhibition of the SMO protein. The larger ratios for the compound of the invention are considered to be reflective of alternate actions outside of direct SMO inhibition.

[2] = Mus musculus, C3H 10T1/2, C3H10T1/2 cells stimulated with mSHH for 72 hours, alkaline phosphatase activity, read-out: IC50 Ranges

T1 sequence (Q99835 28-787): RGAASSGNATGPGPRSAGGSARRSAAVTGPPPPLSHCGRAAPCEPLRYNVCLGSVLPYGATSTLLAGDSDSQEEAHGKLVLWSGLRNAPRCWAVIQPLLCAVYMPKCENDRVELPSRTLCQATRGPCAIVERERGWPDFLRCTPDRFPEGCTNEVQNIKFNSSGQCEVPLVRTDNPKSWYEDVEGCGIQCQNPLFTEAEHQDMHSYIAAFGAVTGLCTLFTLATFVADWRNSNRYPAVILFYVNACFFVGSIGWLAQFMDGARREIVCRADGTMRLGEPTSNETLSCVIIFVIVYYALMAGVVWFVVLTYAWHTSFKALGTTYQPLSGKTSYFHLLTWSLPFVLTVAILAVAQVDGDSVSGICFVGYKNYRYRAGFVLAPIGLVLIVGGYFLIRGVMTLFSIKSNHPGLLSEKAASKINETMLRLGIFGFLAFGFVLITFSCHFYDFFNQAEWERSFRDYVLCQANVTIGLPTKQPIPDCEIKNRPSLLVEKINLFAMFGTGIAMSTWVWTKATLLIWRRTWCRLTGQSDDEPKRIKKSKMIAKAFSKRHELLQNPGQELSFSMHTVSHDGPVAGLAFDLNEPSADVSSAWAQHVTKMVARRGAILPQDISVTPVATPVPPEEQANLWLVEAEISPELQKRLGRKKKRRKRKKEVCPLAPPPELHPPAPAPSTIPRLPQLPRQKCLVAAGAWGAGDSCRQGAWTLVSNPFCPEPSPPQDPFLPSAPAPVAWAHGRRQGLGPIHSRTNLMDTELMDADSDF

| IC50 (C3H10T1/2 cells; [2]) | Ratio of potency in SMO binding assay to potency in C3H10T1/2 cellular assay (SMO) | IC50 (C3H10T1/2 cells; C3H10T1/2 cells stimulated with mSHH for 72 hours, alkaline phosphatase activity, read-out: IC50 Ranges) | IC50 (C3H10T1/2 cells; Mus musculus, C3H 10T1/2, reference compounds run in the C3H assay, read-out: mean IC50) | Compound | Fold reduction in potency in SMO L416F mutant cell line [1] | percent inhibition of C3H10T1/2 cell differentiation ([1]; FIG. 1, compared to vismodegib, wild type versus SMO L416F mutant cell line) |
| --- | --- | --- | --- | --- | --- | --- |
| 10 to 100 nM | 20 |  |  | CC(C)(C)NC(=O)N1CCC(S(=O)(=O)N2CCC(c3c[nH]c4ncccc34)CC2)CC1 [Compound 107, N-tert-butyl-4-[4-(1H-pyrrolo[2,3-b]pyridin-3-yl)piperidin-1-yl]sulfonylpiper-idine-1-carboxamide] | 56 |  |
| 10 to 100 nM | 82 |  |  | CC(C)(C)OC(=O)N1CC(S(=O)(=O)N2CCC(c3cnc4occc4c3)CC2)C1 [Compound 124, tert-butyl 3-(4-furo[2,3-b]pyridin-5-ylpiperidin-1-yl)sulfonylaze-tidine-1-carboxylate] | 64 |  |
| 100 to 1000 nM | >17 |  |  | CC(C)(C)CN1CC(S(=O)(=O)N2CCC(c3c[nH]c4ncccc34)CC2)C1 [Compound 143, 3-[1-[1-(2,2-Dimethylpropyl)azetidin-3-yl]sulfonyl-4-piperidyl]-1H-pyrrolo[2,3-b]pyridine] | 21 |  |
| 10 to 100 nM | 66 |  |  | O=C(OCC1CCC1)N1CC(S(=O)(=O)N2CCC(c3cn(C(=O)OCC4CCC4)c4ncccc34)CC2)C1 [Compound 154, cyclobutylmethyl 3-[1-[1-(cyclobutylmethoxycarbonyl)azetidin-3-yl]sulfonylpiper-idin-4-yl]pyrrolo[2,3-b] pyridine-1-carboxylate] | 28 |  |
| < 10 nM |  |  |  | Cc1noc(C)c1OC(=O)N1CC(S(=O)(=O)N2CCC(c3c[nH]c4ncccc34)CC2)C1 [Compound 160, (3,5-dimethyl-1,2-oxazol-4-yl) 3-[4-(1H-pyrrolo[2,3-b]pyridin-3-yl)piperidin-1-yl]sulfonylaze-tidine-1-carboxylate] | 29 |  |
| < 10 nM |  |  |  | CC(C)[C@H]1CC[C@H](C)C[C@@H]1OC(=O)N1CC(S(=O)(=O)N2CCC(c3c[nH]c4ncccc34)CC2)C1 [Compound 166, [(1S,2R,5S)-5-methyl-2-propan-2-ylcyclohexyl] 3-[4-(1H-pyrrolo[2,3-b]pyridin-3-yl)piperidin-1-yl]sulfonylaze-tidine-1-carboxylate] | 51 |  |
| 10 to 100 nM |  |  |  | O=C(OCC1CCCCC1)N1CC(S(=O)(=O)N2CCC(c3c[nH]c4ncccc34)CC2)C1 [Compound 168, cyclohexylmethyl 3-[4-(1H-pyrrolo[2,3-b]pyridin-3-yl)piperidin-1-yl]sulfonylaze-tidine-1-carboxylate] | 33 |  |
|  |  | < 10 nM |  | O=C(NC12CC3CC(CC(C3)C1)C2)N1CC(S(=O)(=O)N2CCC(c3c[nH]c4ncccc34)CC2)C1 [Compound 171, N-(1-adamantyl)-3-[4-(1H-pyrrolo [2,3-b]pyridin-3-yl)piperidin-1-yl]sulfonylaze-tidine-1-carboxamide] | 38 |  |
| 10 to 100 nM |  |  |  | CC(C)(C)NC(=S)N1CC(S(=O)(=O)N2CCC(c3c[nH]c4ncccc34)CC2)C1 [Compound 174, N-tert-butyl-3-[4-(1H-pyrrolo[2,3-b]pyridin-3-yl)piperidin-1-yl]sulfonylaze-tidine-1-carbothioamide] |  | a lower concentration of compound 174 is required to achieve the same percent inhibition of differentiation |
| < 10 nM |  |  |  | CC(C)(C)CC(C)(C)NC(=O)N1CC(S(=O)(=O)N2CCC(c3c[nH]c4ncccc34)CC2)C1 [Compound 175, 3-[4-(1H-pyrrolo[2,3-b]pyridin-3-yl)piperidin-1-yl]sulfonyl-N-(2,4,4-trimethylpentan-2-yl)azetidine-1-carboxamide] | 40 |  |
| 10 to 100 nM |  |  |  | CC(C)(C)OC(=O)N1CC(S(=O)(=O)N2CCC(c3csc4ncccc34)CC2)C1 [Compound 177, tert-butyl 3-(4-thieno [2,3-b]pyridin-3-ylpiperidin-1-yl)sulfonylaze-tidine-1-carboxylate] | 37 |  |
| < 10 nM |  |  |  | O=C(OCc1ccccc1C(F)(F)F)N1CC(S(=O)(=O)N2CCC(c3c[nH]c4ncccc34)CC2)C1 [Compound 216, [2-(trifluoromethyl)phenyl]methyl 3-[4-(1H-pyrrolo[2,3-b]pyridin-3-yl)piperidin-1-yl]sulfonylaze-tidine-1-carboxylate] | 47 |  |
| < 10 nM |  |  |  | COc1ccccc1OC(=O)N1CC(S(=O)(=O)N2CCC(c3c[nH]c4ncccc34)CC2)C1 [Compound 217, (2-methoxyphenyl) 3-[4-(1H-pyrrolo[2,3-b]pyridin-3-yl)piperidin-1-yl]sulfonylaze-tidine-1-carboxylate] | 34 |  |
| 10 to 100 nM | 21 |  |  | Cc1ccnc2[nH]cc(C3CCN(S(=O)(=O)C4CN(C(=O)OC(C)(C)C)C4)CC3)c12 [Compound 223, tert-butyl 3-[4-(4-methyl-1H-pyrrolo[2,3-b]pyridin-3-yl)piperidin-1-yl]sulfonylaze-tidine-1-carboxylate] | 26 |  |
| 100 to 1000 nM |  |  |  | CC(C)(C)OC(=O)N1CCCC(S(=O)(=O)N2CCC(c3c[nH]c4ncccc34)CC2)C1 (stereo not shown) [Compound 248, tert-butyl 3-[4-(1H-pyrrolo[2,3-b]pyridin-3-yl)piperidin-1-yl]sulfonylpiper-idine-1-carboxylate] | 10 |  |
| 10 to 100 nM |  |  |  | CC(C)[C@@H](CO)NC(=O)N1CC(S(=O)(=O)N2CCC(c3c[nH]c4ncccc34)CC2)C1 [Compound 250, N-[(2S)-1-hydroxy-3-methylbutan-2-yl]-3-[4-(1H-pyrrolo[2,3-b]pyridin-3-yl)piperidin-1-yl]sulfonylaze-tidine-1-carboxamide] | 29 |  |
|  | 2.2 |  | 6.3 nM | CS(=O)(=O)c1ccc(C(=O)Nc2ccc(Cl)c(-c3ccccn3)c2)c(Cl)c1 [Vismodegib, reference compound] | 202 |  |
